Laboratory results: patent US12582638B2, “Pharmaceutical composition for treating cancer, containing mTOR-signaling inhibitor as active ingredient” (KOREA ADVANCED INSTITUTE OF SCIENCE AND TECHNOLOGY, priority 2020, dated 2026)

What was measured:
Experiment in all cases: Cell viability, CellTiterGlo, 72 hours
Assay type in all cases: cell-based
A375 = conditions: Homo sapiens, A-375, A375 cells, Skin
Method: (§1) In addition to the colorectal cells, 120 cancer cell lines treated with various concentrations of lomitapide were assayed for viability. To analyze cell viability, the cells were incubated with lomitapide at 37° C. for 72 hours in a 5% or 10% CO2 atmosphere and then equilibrated at room temperature for 1 hour, followed by addition of CellTiterGlo reagent (Promega). One hour later, luminescence was measured to calculate cell viability (%). The 120 cell lines were purchased from ATCC (American Type Culture Collection, Virginia, USA).

AsPC-1 = conditions: Homo sapiens, ASPC1, AsPC-1 cells, Pancreas
Method: as §1

COR-L279 = conditions: Homo sapiens, COR-L279 cells, Lung
Method: as §1

Caki-1 = conditions: Homo sapiens, Caki-1 cells, Kidney
Method: as §1

DLD-1 = conditions: Homo sapiens, DLD-1 cells, Colon
Method: as §1

EFM-192A = EFM-192A cells, Breast
Method: as §1

EFM-19 = conditions: Homo sapiens, EFM-19 cells, Breast
Method: as §1

EPLC-272H = conditions: Homo sapiens, EPLC-272H cells, Lung
Method: as §1

HEC-1-A = conditions: Homo sapiens, HEC-1-A cells, Endometrium
Method: as §1

HT-1080 = conditions: Homo sapiens, HT-1080 cells, Fibrosarcoma
Method: as §1

HT-29 = conditions: Homo sapiens, HT-29 cells, Colon
Method: as §1

Hs 746T = conditions: Homo sapiens, Hs746T, Hs 746T cells, Stomach
Method: as §1

Ishikawa = conditions: Homo sapiens, Ishikawa cells, Endometrium
Method: as §1

K562 = conditions: Homo sapiens, K562 cells, Blood
Method: as §1

KARPAS 299 = conditions: Homo sapiens, KARPAS 299 cells, Blood
Method: as §1

Kato III = conditions: Homo sapiens, Kato III cells, Stomach
Method: as §1

LN229 = conditions: Homo sapiens, LN-229, LN229 cells, Brain
Method: as §1

LOVO = conditions: Homo sapiens, LOVO cells, Colon
Method: as §1

LP-1 = conditions: Homo sapiens, LP-1 cells, Blood
Method: as §1

LnCap = conditions: Homo sapiens, LnCap cells, Prostate
Method: as §1

MCF-7 = conditions: Homo sapiens, MCF7, MCF-7 cells, Breast
Method: as §1

MEC-1 = conditions: Homo sapiens, MEC1, MEC-1 cells, Blood
Method: as §1

MKN-1 = conditions: Homo sapiens, MKN-1 cells, Stomach
Method: as §1

MOLM-13 = conditions: Homo sapiens, MOLM-13 cells, Blood
Method: as §1

Mia PaCA 2 = conditions: Homo sapiens, Mia PaCA 2 cells, Pancreas
Method: as §1

NCI-H1703 = conditions: Homo sapiens, NCI-H1703 cells, Lung
Method: as §1

OCI-AML5 = conditions: Homo sapiens, OCI-AML-5, OCI-AML5 cells, Blood
Method: as §1

OCI-LY19 = conditions: Homo sapiens, OCI-LY19 cells, Blood
Method: as §1

OV56 = OV56 cells, Ovary
Method: as §1

RERF-LC-Ad2 = RERF-LC-Ad2 cells, Lung
Method: as §1

SJSA-1 = conditions: Homo sapiens, SJSA-1 cells, Bone
Method: as §1

SK-OV3 = conditions: Homo sapiens, SK-OV-3, SK-OV3 cells, Ovary
Method: as §1

SNU-1 = conditions: Homo sapiens, SNU1, SNU-1 cells, Stomach
Method: as §1

SNU840 = conditions: SNU-840, SNU840 cells, Ovary
Method: as §1

SW480 = conditions: Homo sapiens, SW480 cells, Colon
Method: as §1

SW620 = conditions: Homo sapiens, SW-620, SW620 cells, Colon
Method: as §1

SW948 = conditions: Homo sapiens, SW948 cells, Colon
Method: as §1

T84 = conditions: Homo sapiens, T84 cells, Colon
Method: as §1

U251MG = conditions: Homo sapiens, U-251, U251MG cells, Brain
Method: as §1

With O=C(NC1CCN(CCCCC2(C(=O)NCC(F)(F)F)c3ccccc3-c3ccccc32)CC1)c1ccccc1-c1ccc(C(F)(F)F)cc1 [lomitapide, N-(2,2,2-trifluoroethyl)-9-[4-[4-[[[4′-(trifluoromethyl)[1,1′-biphenyl]2-yl]carbonyl]amino]-1-piperidinyl]butyl]-9H-fluoren-9-carboxamide] the IC50 (A375) was 1.8 µM, the IC50 (AsPC-1) was 3.6 µM and the IC50 (COR-L279) was 2.7 µM. The IC50 (Caki-1) was 3.6 µM, the IC50 (DLD-1) was 4.5 µM and the IC50 (EFM-192A) was 4 µM. The IC50 (EFM-19) was 3.6 µM, the IC50 (EPLC-272H) was 3.1 µM and the IC50 (HEC-1-A) was 4.9 µM. For the same molecule, the IC50 (HT-1080) was 3.9 µM, the IC50 (HT-29) was 1.6 µM and the IC50 (Hs 746T) was 2.5 µM. For the same molecule, the IC50 (Ishikawa) was 3.6 µM, the IC50 (K562) was 2.1 µM and the IC50 (KARPAS 299) was 1.4 µM. For the same molecule, the IC50 (Kato III) was 5.4 µM, the IC50 (LN229) was 2.7 µM and the IC50 (LOVO) was 3.4 µM. The IC50 (LP-1) was 5.4 µM, the IC50 (LnCap) was 3.5 µM and the IC50 (MCF-7) was 2.8 µM. The IC50 (MEC-1) was 3.3 µM, the IC50 (MKN-1) was 3.7 µM and the IC50 (MOLM-13) was 6.3 µM. For the same molecule, the IC50 (Mia PaCA 2) was 2.9 µM, the IC50 (NCI-H1703) was 5.7 µM and the IC50 (OCI-AML5) was 2.7 µM. The IC50 (OCI-LY19) was 2.8 µM, the IC50 (OV56) was 4.8 µM and the IC50 (RERF-LC-Ad2) was 2.6 µM. For the same molecule, the IC50 (SJSA-1) was 3.1 µM, the IC50 (SK-OV3) was 3.3 µM and the IC50 (SNU-1) was 2.8 µM. It also gave an IC50 (SNU840) of 2.3 µM, an IC50 (SW480) of 2.5 µM and an IC50 (SW620) of 3.6 µM. For the same molecule, the IC50 (SW948) was 4.5 µM, the IC50 (T84) was 3.2 µM and the IC50 (U251MG) was 5.4 µM.
